Assay results reported in patent publication US20250222003A1, “PHARMACEUTICAL COMPOSITION FOR TREATING SOLID TUMORS” (Eisai R&D Management Co., Ltd., priority 2021, published 2025).

Tested on: patients with a solid tumor
Test: Suppression of nausea or vomiting associated with administration of Compound A by antiemetics
Type: in vivo, human
Conditions: for number of subjects showing improvement of vomiting by the antiemetic: of 20 subjects complaining of vomiting during Cycle 1, prochlorperazine or metoclopramide; for number of subjects that did not show improvement of vomiting after the antiemetic / number of subjects in which vomiting could be suppressed / number of subjects showing improvement after switch from non-5-HT3 antiemetic to the 5-HT3 receptor antagonist: of 20 subjects; for number of subjects that did not show improvement of vomiting after the antiemetic: domperidone, metoclopramide or prochlorperazine; for number of subjects in which vomiting could not be suppressed: Compound A 160 mg BID; for number of subjects in which vomiting could not be suppressed / number of subjects in which vomiting could be suppressed / number of subjects showing improvement after switch from non-5-HT3 antiemetic to the 5-HT3 receptor antagonist: ramosetron or granisetron
From the text: For subjects of administration that had the gastrointestinal symptoms, nausea or vomiting, the results of administration of various antiemetics were investigated to determine whether they could suppress the occurrence of nausea or vomiting. The antiemetics used were domperidone ([…], Nauzelin tablet), metoclopramide (peripheral D2 receptor antagonist, metoclopramide tablet), ramosetron hydrochloride (5-HT3 receptor antagonist, Nasea tablet), granisetron (5-HT3 receptor antagonist (Kytril tablet), and the like.
The antiemetics were timely administered to 20 subjects of administration that complained of vomiting during Cycle 1.
FIGS. 1 and 2 are graphs showing the relationship between Cmax(Cmax,ss) or AUC (AUC(0-tau),ss) and the vomiting flag for each test subject at the time of CID8. For example, the vomiting flag 3 means a case in which treatment with an antiemetic other than the 5-HT3 receptor antagonist was first attempted but vomiting could not be suppressed, and vomiting could be suppressed when the antiemetic was switched to the 5-HT3 receptor antagonist.
Five additional patients were investigated whether the occurrence of nausea or vomiting, which is an adverse event having a causal relationship with Compound A, could be suppressed. Ramosetron hydrochloride or granisetron hydrochloride (5-HT3 receptor antagonist) was administered to four patients of administration that complained of vomiting during Cycle 1. Of the four patients that complained of vomiting, three patients received granisetron hydrochloride to prevent the gastrointestinal symptoms (nausea, vomiting) associated with administration of Compound A.

Compound	number of subjects showing improvement of vomiting by the antiemetic	number of subjects that did not show improvement of vomiting after the antiemetic	number of subjects in which vomiting could not be suppressed	number of subjects in which vomiting could be suppressed	number of subjects showing improvement after switch from non-5-HT3 antiemetic to the 5-HT3 receptor antagonist	number of test subjects in which vomiting could be suppressed when given after symptoms of nausea or vomiting (additional patients, Compound A 120 mg BID)	vomiting after prophylactic administration (additional patients, Compound A 120 mg BID, three patients)	number of subjects in which vomiting could be prevented when given at onset of nausea (of the twelve subjects)
CCN(CC)CCNC(=O)c1cc(Cl)c(N)cc1OC [metoclopramide]	Two	four						
CN1CCN(CCCN2c3ccccc3Sc3ccc(Cl)cc32)CC1 [prochlorperazine]	Two	four						
Cl.Cn1cc(C(=O)[C@@H]2CCc3[nH]cnc3C2)c2ccccc21 [ramosetron, (−)-(R)-5-[(1-methyl-1H-indol-3-yl)carbonyl]-4,5,6,7-tetrahydro-1H-benzimidazole monohydrochloride]			two	twelve	four			
O=c1[nH]c2ccccc2n1CCCN1CCC(n2c(=O)[nH]c3cc(Cl)ccc32)CC1 [domperidone]		four						
CN1[C@@H]2CCC[C@H]1C[C@@H](NC(=O)c1nn(C)c3ccccc13)C2.Cl [granisetron, 1-methyl-N-(endo-9-methyl-9-azabicyclo[3.3.1]non-3-yl)-1H-indazole-3-carboxamide hydrochloride]			two	twelve	four	one	no vomiting occurred afterwards	two
